# Test results reported in ChEMBL document CHEMBL5505984, “Carbazole to indolazepinone scaffold morphing leads to potent cell-active dengue antivirals” (Eur J Med Chem, 2024).
# Several values for one entry are separate records, joined by “and”; a condition that tells them apart may be missing. Equal values may be shown once. Activity calls are given as the source filed them. The calls are words filed in the database; no cut-off is given here.
# What was measured:
# [1] = system: dengue virus type 1; test: Antiviral activity Dengue virus 1 by cell based assay; assay type: functional, organism-based
# [2] = system: dengue virus type 2; test: Antiviral activity Dengue virus 2 by cell based assay; assay type: functional, organism-based
# [3] = system: dengue virus type 2; test: Antiviral activity Dengue virus 2 D2Y10 by cell based assay; assay type: functional, organism-based
# [4] = system: dengue virus type 3; test: Antiviral activity Dengue virus 3 by cell based assay; assay type: functional, organism-based
# [5] = system: dengue virus type 4; test: Antiviral activity Dengue virus 4 by cell based assay; assay type: functional, organism-based
# [6] = system: Zika virus; test: Antiviral activity Zika virus by cell based assay; assay type: functional, organism-based
# [7] = system: dengue virus type 2; test: Antiviral activity against Dengue virus 2 infected in human Huh-7 cells assessed as inhibition of plaque formation relative to control; assay type: functional
# [8] = system: dengue virus type 2; test: Antiviral activity against Dengue virus 2 D2Y10 infected in human THP-1 cells assessed as inhibition of secondary antibody dependent enhancement-driven infection relative to control; assay type: functional
# [9] = system: dengue virus type 2; test: Antiviral activity against Dengue virus 2 infected in human Huh-7 cells assessed as clearance of viral RNA relative to control; assay type: functional; parameters: concentration or dose not given beside the values
# [10] = system: dengue virus type 2; test: Antiviral activity against Dengue virus 2 infected in human Huh-7 cells assessed as clearance of viral RNA at 10 uM; assay type: functional, organism-based
# [11] = system: dengue virus type 2; test: Antiviral activity against Dengue virus 2 infected in human Huh-7 cells assessed as reduction in plaque reduction relative to control; assay type: functional; parameters: scale not given: the % may be the effect or the level left
# [12] = system: dengue virus type 2; test: Antiviral activity against Dengue virus 2 infected in human Huh-7 cells assessed as clearance of viral RNA at 100 uM; assay type: functional, organism-based
smiles,measurement,setting,value
N/C(=N\O)c1ccc(CN2CCc3cn(Cc4ccc(Br)cc4)c4cc(-c5ccc(/C(N)=N/O)s5)cc(c34)C2=O)cc1,EC50,[1],790 nM
same,EC50,[2],610 nM
same,EC50,[3],330 nM
same,EC50,[4],160 nM
same,EC50,[5],2250 nM
same,EC50,[6],1420 nM
same,inhibition (INH),[7],100%
same,inhibition (INH),[8],60%
same,Activity,[9],>95%
N/C(=N\O)c1cccc(NC(=O)c2cn(CCn3cc(Br)cn3)c3ccc(-c4cccc(/C(N)=N/O)c4)cc23)c1,EC50,[2],1830 nM
same,Activity,[10],inactive
C#C[C@@]1(O)[C@H](O)[C@@H](CO)O[C@H]1n1ccc2c(N)ncnc21,EC50,[1],860 nM
same,EC50,[2],640 nM
same,EC50,[3],780 nM
same,EC50,[4],870 nM
same,EC50,[5],110 nM
same,EC50,[6],120 nM
same,inhibition (INH),[7],100%
same,inhibition (INH),[8],100%
N/C(=N\O)c1ccc(CN2CCc3cn(Cc4cccc(Br)c4)c4cc(-c5cccc(/C(N)=N/O)c5)cc(c34)C2=O)cc1,EC50,[1],1030 nM
same,EC50,[2],660 nM
same,EC50,[3],380 nM
same,EC50,[4],1440 nM
same,EC50,[5],1240 nM
same,EC50,[6],3400 nM
same,inhibition (INH),[7],95%
same,inhibition (INH),[8],100%
same,Activity,[9],>95%
N/C(=N\O)c1ccc(CN2CCc3cn(Cc4cccc(Br)c4)c4cc(-c5ccc(/C(N)=N/O)cc5)cc(c34)C2=O)cc1,Activity,[11],<85%
N/C(=N\O)c1ccc(CN2CCc3cn(Cc4ccc(Br)cc4)c4cc(-c5cccc(/C(N)=N/O)c5)cc(c34)C2=O)cc1,EC50,[1],1260 nM
same,EC50,[2],100 nM
same,EC50,[3],100 nM
same,EC50,[4],120 nM
same,EC50,[5],950 nM
same,EC50,[6],1760 nM
same,inhibition (INH),[7],97%
same,inhibition (INH),[8],100%
same,Activity,[9],>95%
N/C(=N\O)c1cccc(-c2cc3c4c(cn(Cc5cccc(Br)c5)c4c2)CCN(Cc2ccc(/C(N)=N/O)s2)C3=O)c1,Activity,[11],<85%
N/C(=N\O)c1cccc(-c2ccc3c(C(=O)N4CCN(c5cccc(/C(N)=N/O)c5)CC4)cn(Cc4ccc(Br)cc4)c3c2)c1,EC50,[2],1130 nM
same,Activity,[12],inactive
N/C(=N\O)c1cccc(CNC(=O)c2cn(Cc3cccc(Br)c3)c3ccc(-c4cccc(/C(N)=N/O)c4)cc23)c1,EC50,[2],1000 nM
same,Activity,[9],>95%
N/C(=N\O)c1cccc(-c2ccc3c(C(=O)N4CCN(c5cccc(/C(N)=N/O)c5)CC4)cn(Cc4cccc(Br)c4)c3c2)c1,EC50,[2],1230 nM
same,Activity,[12],inactive
N/C(=N\O)c1cccc(NC(=O)c2cn(Cc3ccc(Br)cc3)c3ccc(-c4cccc(/C(N)=N/O)c4)cc23)c1,EC50,[2],4480 nM
same,Activity,[9],>95%
N/C(=N\O)c1cccc(CNC(=O)c2cn(Cc3cccc(Br)c3)c3cc(-c4cccc(/C(N)=N/O)c4)ccc23)c1,EC50,[2],6900 nM
same,Activity,[9],>95%
N/C(=N\O)c1cccc(NC(=O)c2nn(Cc3cccc(Br)c3)c3ccc(-c4cccc(/C(N)=N/O)c4)cc23)c1,EC50,[2],2190 nM
same,Activity,[9],inactive
N/C(=N\O)c1cccc(CN2CCc3cn(Cc4cccc(Br)c4)c4cc(-c5cccc(/C(N)=N/O)c5)cc(c34)C2=O)c1,EC50,[2],1350 nM
same,Activity,[9],>95%
N/C(=N\O)c1cccc(NC(=O)c2nn(Cc3cccc(Br)c3)cc2NC(=O)c2cccc(/C(N)=N/O)c2)c1,EC50,[2],7020 nM
N/C(=N\O)c1ccc(CNC(=O)c2cn(Cc3cccc(Br)c3)c3ccc(-c4cccc(/C(N)=N/O)c4)cc23)cc1,EC50,[2],2270 nM
same,Activity,[9],>95%
N/C(=N\O)c1ccc(CN2CCc3cn(Cc4ccc(Br)nc4)c4cc(-c5cccc(/C(N)=N/O)c5)cc(c34)C2=O)cc1,EC50,[2],960 nM
same,Activity,[9],>95%
N/C(=N\O)c1cccc(NC(=O)c2cn(Cc3cccc(Br)c3)c3ccc(-c4cccc(/C(N)=N/O)c4)cc23)c1,EC50,[2],1800 nM
same,Activity,[9],>=95% and >95%
N/C(=N\O)c1cccc(-c2ccc3c(C(=O)N4CCN(c5cccc(/C(N)=N/O)c5)CC4)cn(Cc4ccc(Br)nc4)c3c2)c1,EC50,[2],1000 nM
same,Activity,[12],inactive
